Legend:
Assay in all cases: Kinase panel
Assay type in all cases: biochemical
Settings in all cases: read-out: % Residual Activity
[1] = biological target: T1, Haspin(h) (Homo sapiens, UniProt Q8TF76)
T1 construct: purchased Eurofins (KinaseProfiler)
Procedure, shortened: (§1)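 In this kinome-wide profiling of rilpivirine, IC50 values were obtained in radiometric format at the Km concentration of ATP for each kinase, then expressed as Ki using Cheng–Prusoff.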

[2] = biological target: T2, MEKK2(h) (Homo sapiens, UniProt Q9Y2U5)
T2 construct: purchased Eurofins (KinaseProfiler)
Procedure, shortened: as §1

[3] = biological target: T3, PKBβ(h) (Homo sapiens, UniProt P31751)
T3 construct: purchased Eurofins (KinaseProfiler)
Procedure, shortened: as §1

[4] = biological target: T4, EphB1(h) (Homo sapiens, UniProt P54762)
T4 construct: purchased Eurofins (KinaseProfiler)
Procedure, shortened: as §1

[5] = biological target: T5, CDK6/cyclinD3(h) (Homo sapiens, UniProt Q00534)
T5 construct: purchased Eurofins (KinaseProfiler)
Procedure, shortened: as §1

[6] = biological target: T6, RIPK2(h) (Homo sapiens, UniProt O43353)
T6 construct: purchased Eurofins (KinaseProfiler)
Procedure, shortened: as §1

[7] = biological target: T7, EphB4(h) (Homo sapiens, UniProt P54760)
T7 construct: purchased Eurofins (KinaseProfiler)
Procedure, shortened: as §1

[8] = biological target: T8, MuSK(h) (Homo sapiens, UniProt O15146)
T8 construct: purchased Eurofins (KinaseProfiler)
Procedure, shortened: as §1

[9] = biological target: T9, EphA8(h) (Homo sapiens, UniProt P29322)
T9 construct: purchased Eurofins (KinaseProfiler)
Procedure, shortened: as §1

[10] = biological target: T10, mTOR(h) (Homo sapiens, UniProt P42345)
T10 construct: purchased Eurofins (KinaseProfiler)
Procedure, shortened: as §1

[11] = biological target: T11, CLK2(h) (Homo sapiens, UniProt P49760)
T11 construct: purchased Eurofins (KinaseProfiler)
Procedure, shortened: as §1

[12] = biological target: T12, ATR/ATRIP(h) (Homo sapiens, UniProt Q13535)
T12 construct: purchased Eurofins (KinaseProfiler)
Procedure, shortened: as §1

[13] = biological target: T13, WNK2(h) (Homo sapiens, UniProt Q9Y3S1)
T13 construct: purchased Eurofins (KinaseProfiler)
Procedure, shortened: as §1

[14] = biological target: T14, DRAK2(h) (Homo sapiens, UniProt O94768)
T14 construct: purchased Eurofins (KinaseProfiler)
Procedure, shortened: as §1

[15] = biological target: T15, ROCK-II(h) (Homo sapiens, UniProt O75116)
T15 construct: purchased Eurofins (KinaseProfiler)
Procedure, shortened: as §1

[16] = biological target: T16, TTK(h) (Homo sapiens, UniProt P33981)
T16 construct: purchased Eurofins (KinaseProfiler)
Procedure, shortened: as §1

[17] = biological target: T17, Hck(h) (Homo sapiens, UniProt P08631)
T17 construct: purchased Eurofins (KinaseProfiler)
Procedure, shortened: as §1

[18] = biological target: T18, Blk(m) (Mus musculus, UniProt P16277)
T18 construct: purchased Eurofins (KinaseProfiler)
Procedure, shortened: as §1

[19] = biological target: T19, cKit(h) (Homo sapiens, UniProt P10721)
T19 construct: purchased Eurofins (KinaseProfiler)
Procedure, shortened: as §1

[20] = biological target: T20, MST1(h) (Homo sapiens, UniProt Q13043)
T20 construct: purchased Eurofins (KinaseProfiler)
Procedure, shortened: as §1

[21] = biological target: T21, TGFBR2(h) (Homo sapiens, UniProt P37173)
T21 construct: purchased Eurofins (KinaseProfiler)
Procedure, shortened: as §1

[22] = biological target: T22, GRK2(h) (Homo sapiens, UniProt P25098)
T22 construct: purchased Eurofins (KinaseProfiler)
Procedure, shortened: as §1

[23] = biological target: T23, PKCδ(h) (Homo sapiens, UniProt Q05655)
T23 construct: purchased Eurofins (KinaseProfiler)
Procedure, shortened: as §1

[24] = biological target: T24, DCAMKL1(h) (Homo sapiens, UniProt O15075)
T24 construct: purchased Eurofins (KinaseProfiler)
Procedure, shortened: as §1

[25] = biological target: T25, Src(1-530)(h) (Homo sapiens, UniProt P12931)
T25 construct: purchased Eurofins (KinaseProfiler)
Procedure, shortened: as §1

[26] = biological target: T26, CaMKIIβ(h) (Homo sapiens, UniProt Q13554)
T26 construct: purchased Eurofins (KinaseProfiler)
Procedure, shortened: as §1

[27] = biological target: T27, Plk3(h) (Homo sapiens, UniProt Q9H4B4)
T27 construct: purchased Eurofins (KinaseProfiler)
Procedure, shortened: as §1

[28] = biological target: T28, B-Raf(h) (Homo sapiens, UniProt P15056)
T28 construct: purchased Eurofins (KinaseProfiler)
Procedure, shortened: as §1

[29] = biological target: T29, PKBα(h) (Homo sapiens, UniProt P31749)
T29 construct: purchased Eurofins (KinaseProfiler)
Procedure, shortened: as §1

[30] = biological target: T30, DAPK1(h) (Homo sapiens, UniProt P53355)
T30 construct: purchased Eurofins (KinaseProfiler)
Procedure, shortened: as §1

[31] = biological target: T31, CaMKK1(h) (Homo sapiens, UniProt Q8N5S9)
T31 construct: purchased Eurofins (KinaseProfiler)
Procedure, shortened: as §1

[32] = biological target: T32, Wee1(h) (Homo sapiens, UniProt P30291)
T32 construct: purchased Eurofins (KinaseProfiler)
Procedure, shortened: as §1

[33] = biological target: T33, IRE1(h) (Homo sapiens, UniProt O75460)
T33 construct: purchased Eurofins (KinaseProfiler)
Procedure, shortened: as §1

[34] = biological target: T34, ZAP-70(h) (Homo sapiens, UniProt P43403)
T34 construct: purchased Eurofins (KinaseProfiler)
Procedure, shortened: as §1

[35] = biological target: T35, TNIK(h) (Homo sapiens, UniProt Q9UKE5)
T35 construct: purchased Eurofins (KinaseProfiler)
Procedure, shortened: as §1

[36] = biological target: T36, MAP4K5(h) (Homo sapiens, UniProt Q9Y4K4)
T36 construct: purchased Eurofins (KinaseProfiler)
Procedure, shortened: as §1

[37] = biological target: T37, IRAK1(h) (Homo sapiens, UniProt P51617)
T37 construct: purchased Eurofins (KinaseProfiler)
Procedure, shortened: as §1

[38] = biological target: T38, FGFR3(h) (Homo sapiens, UniProt P22607)
T38 construct: purchased Eurofins (KinaseProfiler)
Procedure, shortened: as §1

[39] = biological target: PIP5K1a(h) (Homo sapiens, UniProt Q99755)
Procedure, shortened: as §1

T18 sequence (P16277 2-499 limits assumed): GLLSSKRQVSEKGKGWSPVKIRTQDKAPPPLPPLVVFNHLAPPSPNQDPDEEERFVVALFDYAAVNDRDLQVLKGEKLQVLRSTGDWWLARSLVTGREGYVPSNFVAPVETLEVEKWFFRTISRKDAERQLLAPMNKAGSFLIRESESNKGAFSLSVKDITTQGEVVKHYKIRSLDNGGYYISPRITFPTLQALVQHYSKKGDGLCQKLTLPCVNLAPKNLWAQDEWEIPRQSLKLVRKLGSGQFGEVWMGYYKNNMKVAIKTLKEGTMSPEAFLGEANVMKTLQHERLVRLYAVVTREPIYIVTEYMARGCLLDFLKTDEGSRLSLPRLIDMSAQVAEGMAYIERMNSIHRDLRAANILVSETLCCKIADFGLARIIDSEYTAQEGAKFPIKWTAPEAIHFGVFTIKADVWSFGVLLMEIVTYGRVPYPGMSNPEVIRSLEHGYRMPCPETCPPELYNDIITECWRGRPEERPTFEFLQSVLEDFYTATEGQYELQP
T15 sequence (O75116 whole entry): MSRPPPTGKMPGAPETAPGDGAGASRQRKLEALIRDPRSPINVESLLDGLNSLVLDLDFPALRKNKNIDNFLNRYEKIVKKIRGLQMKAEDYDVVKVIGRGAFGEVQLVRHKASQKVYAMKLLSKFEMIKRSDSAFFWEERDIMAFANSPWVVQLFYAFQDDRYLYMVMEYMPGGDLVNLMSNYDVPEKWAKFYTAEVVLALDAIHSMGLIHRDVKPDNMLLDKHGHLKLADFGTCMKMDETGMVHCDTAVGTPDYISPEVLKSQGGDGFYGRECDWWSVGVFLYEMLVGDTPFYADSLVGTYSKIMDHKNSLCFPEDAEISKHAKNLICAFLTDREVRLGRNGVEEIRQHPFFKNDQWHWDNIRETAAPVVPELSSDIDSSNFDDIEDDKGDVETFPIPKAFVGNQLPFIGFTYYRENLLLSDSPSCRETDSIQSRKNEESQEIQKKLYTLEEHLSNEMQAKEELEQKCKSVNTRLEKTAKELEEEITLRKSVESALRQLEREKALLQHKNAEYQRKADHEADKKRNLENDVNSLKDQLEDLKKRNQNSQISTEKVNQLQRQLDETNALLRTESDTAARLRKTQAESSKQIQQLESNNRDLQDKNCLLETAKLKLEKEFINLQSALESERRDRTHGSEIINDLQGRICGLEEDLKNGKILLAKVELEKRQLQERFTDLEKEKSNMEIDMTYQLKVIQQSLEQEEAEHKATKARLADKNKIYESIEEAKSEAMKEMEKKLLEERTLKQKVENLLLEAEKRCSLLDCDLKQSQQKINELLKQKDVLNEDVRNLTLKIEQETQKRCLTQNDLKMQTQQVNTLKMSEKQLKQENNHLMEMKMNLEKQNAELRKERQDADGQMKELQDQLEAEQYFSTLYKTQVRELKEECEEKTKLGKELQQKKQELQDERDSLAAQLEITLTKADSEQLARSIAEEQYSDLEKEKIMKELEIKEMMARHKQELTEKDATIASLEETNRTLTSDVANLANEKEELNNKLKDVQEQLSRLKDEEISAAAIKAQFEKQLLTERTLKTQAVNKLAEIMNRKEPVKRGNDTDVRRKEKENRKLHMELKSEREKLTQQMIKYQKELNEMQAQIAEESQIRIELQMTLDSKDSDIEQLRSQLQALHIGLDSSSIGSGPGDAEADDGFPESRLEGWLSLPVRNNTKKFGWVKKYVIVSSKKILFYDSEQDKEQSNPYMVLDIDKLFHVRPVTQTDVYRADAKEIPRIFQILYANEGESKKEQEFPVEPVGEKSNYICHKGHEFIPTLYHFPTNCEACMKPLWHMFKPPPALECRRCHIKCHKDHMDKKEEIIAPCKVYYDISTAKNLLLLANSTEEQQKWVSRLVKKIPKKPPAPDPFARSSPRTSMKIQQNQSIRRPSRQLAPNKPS
T34 sequence (P43403 whole entry): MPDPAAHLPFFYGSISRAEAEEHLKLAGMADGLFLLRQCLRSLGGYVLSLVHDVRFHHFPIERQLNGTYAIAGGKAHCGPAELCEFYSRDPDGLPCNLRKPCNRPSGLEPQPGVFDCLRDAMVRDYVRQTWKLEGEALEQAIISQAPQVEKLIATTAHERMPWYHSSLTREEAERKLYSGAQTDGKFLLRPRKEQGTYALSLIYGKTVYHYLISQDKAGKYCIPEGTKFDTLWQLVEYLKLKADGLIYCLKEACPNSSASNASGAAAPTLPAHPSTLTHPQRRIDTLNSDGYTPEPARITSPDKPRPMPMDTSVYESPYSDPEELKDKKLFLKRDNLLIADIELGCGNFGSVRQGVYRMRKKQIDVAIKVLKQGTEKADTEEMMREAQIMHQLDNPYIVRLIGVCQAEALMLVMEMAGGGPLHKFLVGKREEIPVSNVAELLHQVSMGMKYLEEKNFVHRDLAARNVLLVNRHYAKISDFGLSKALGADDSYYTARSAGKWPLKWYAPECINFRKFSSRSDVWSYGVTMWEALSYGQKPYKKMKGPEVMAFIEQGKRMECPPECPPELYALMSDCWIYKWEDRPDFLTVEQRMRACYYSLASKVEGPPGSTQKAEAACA
T36 sequence (Q9Y4K4 whole entry): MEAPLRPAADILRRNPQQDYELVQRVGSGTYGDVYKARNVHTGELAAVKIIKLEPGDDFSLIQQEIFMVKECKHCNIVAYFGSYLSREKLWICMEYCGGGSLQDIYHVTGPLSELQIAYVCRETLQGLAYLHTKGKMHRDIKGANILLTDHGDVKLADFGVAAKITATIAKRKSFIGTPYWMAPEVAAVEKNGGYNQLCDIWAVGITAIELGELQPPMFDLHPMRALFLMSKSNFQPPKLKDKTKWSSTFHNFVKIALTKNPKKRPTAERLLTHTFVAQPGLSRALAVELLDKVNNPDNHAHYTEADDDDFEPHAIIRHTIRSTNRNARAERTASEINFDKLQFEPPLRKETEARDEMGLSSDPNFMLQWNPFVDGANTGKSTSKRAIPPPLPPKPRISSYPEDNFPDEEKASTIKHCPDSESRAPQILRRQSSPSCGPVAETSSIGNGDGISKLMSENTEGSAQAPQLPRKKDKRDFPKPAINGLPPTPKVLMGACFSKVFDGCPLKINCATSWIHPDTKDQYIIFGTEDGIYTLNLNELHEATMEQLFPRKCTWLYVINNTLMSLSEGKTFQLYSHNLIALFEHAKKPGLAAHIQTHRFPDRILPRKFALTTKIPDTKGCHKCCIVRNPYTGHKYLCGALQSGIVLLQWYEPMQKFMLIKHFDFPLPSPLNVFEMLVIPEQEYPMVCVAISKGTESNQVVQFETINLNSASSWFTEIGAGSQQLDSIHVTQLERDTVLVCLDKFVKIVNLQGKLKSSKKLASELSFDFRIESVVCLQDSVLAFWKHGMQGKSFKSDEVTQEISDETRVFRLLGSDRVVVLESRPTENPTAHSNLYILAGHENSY
T7 sequence (P54760 16-987): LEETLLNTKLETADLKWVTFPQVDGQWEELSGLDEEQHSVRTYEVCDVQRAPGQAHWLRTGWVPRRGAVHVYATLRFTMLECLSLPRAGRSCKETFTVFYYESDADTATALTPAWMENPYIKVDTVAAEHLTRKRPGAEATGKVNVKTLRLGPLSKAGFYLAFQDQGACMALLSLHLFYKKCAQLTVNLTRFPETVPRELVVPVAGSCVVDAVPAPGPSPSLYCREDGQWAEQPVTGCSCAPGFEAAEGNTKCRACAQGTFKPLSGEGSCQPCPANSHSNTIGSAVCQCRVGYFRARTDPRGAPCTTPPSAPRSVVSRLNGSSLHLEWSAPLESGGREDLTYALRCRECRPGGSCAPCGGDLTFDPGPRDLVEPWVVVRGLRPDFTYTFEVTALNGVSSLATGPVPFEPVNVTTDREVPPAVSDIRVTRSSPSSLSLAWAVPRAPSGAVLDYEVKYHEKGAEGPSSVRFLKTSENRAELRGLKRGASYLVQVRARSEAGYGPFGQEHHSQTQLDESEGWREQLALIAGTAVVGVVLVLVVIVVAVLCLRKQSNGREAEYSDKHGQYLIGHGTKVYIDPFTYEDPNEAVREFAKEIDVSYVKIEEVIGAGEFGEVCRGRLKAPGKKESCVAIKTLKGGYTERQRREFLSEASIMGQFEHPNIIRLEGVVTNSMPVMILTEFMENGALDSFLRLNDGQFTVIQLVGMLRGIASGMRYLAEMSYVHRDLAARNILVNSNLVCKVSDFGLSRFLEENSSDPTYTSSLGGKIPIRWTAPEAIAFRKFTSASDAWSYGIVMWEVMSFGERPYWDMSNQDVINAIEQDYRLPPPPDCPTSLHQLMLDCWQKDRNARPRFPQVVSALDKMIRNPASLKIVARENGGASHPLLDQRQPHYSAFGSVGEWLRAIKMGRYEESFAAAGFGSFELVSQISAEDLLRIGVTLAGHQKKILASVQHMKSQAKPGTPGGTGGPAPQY
T32 sequence (P30291 whole entry): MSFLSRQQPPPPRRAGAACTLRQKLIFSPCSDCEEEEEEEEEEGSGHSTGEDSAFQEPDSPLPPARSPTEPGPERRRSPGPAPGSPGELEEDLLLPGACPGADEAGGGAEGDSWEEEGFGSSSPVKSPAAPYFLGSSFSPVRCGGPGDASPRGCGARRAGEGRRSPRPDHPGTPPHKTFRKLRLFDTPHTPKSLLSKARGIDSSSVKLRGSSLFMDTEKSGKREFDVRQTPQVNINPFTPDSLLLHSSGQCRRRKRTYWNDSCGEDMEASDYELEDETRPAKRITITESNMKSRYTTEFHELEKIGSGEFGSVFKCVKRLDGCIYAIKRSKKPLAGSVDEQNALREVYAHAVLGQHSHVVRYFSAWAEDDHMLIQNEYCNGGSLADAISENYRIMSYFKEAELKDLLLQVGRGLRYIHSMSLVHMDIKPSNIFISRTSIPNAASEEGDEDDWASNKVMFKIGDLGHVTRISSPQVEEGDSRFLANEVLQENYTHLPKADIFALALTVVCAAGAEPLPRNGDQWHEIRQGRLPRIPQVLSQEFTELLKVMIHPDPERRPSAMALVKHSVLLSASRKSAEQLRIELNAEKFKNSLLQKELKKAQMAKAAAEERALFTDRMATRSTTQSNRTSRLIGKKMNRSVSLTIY

**Q.** How did the remaining activity at 1 µM [1] turn out when `Cc1cc(/C=C/C#N)cc(C)c1Nc1ccnc(Nc2ccc(C#N)cc2)n1` [rilpivirine, (E)-4-((4-((4-(2-cyanoethenyl)-2,6-dimethylphenyl)amino)pyrimidin-2-yl)amino)benzonitrile] was run?
**A.** 61%

**Q.** What about the remaining activity at 1 µM [2] of the same compound?
**A.** 104%

**Q.** What about the remaining activity at 1 µM [3] of the same compound?
**A.** 90%

**Q.** What about the remaining activity at 1 µM [4] of the same compound?
**A.** 94%

**Q.** And the remaining activity at 1 µM [5]?
**A.** 96%

**Q.** And the remaining activity at 1 µM [6]?
**A.** 45%

**Q.** What about the remaining activity at 1 µM [7] of the same compound?
**A.** 86%

**Q.** And the remaining activity at 1 µM [8]?
**A.** 96%

**Q.** And the remaining activity at 1 µM [9]?
**A.** 60%

**Q.** And the remaining activity at 1 µM [10]?
**A.** 97%

**Q.** And the remaining activity at 1 µM [11]?
**A.** 60%

**Q.** And the remaining activity at 1 µM [12]?
**A.** 117%

**Q.** What about the remaining activity at 1 µM [13] of the same compound?
**A.** 80%

**Q.** And the remaining activity at 1 µM [14]?
**A.** 107%

**Q.** What about the remaining activity at 1 µM [15] of the same compound?
**A.** 98%

**Q.** And the remaining activity at 1 µM [16]?
**A.** 71%

**Q.** What about the remaining activity at 1 µM [17] of the same compound?
**A.** 50%

**Q.** What about the remaining activity at 1 µM [18] of the same compound?
**A.** 75%

**Q.** What about the remaining activity at 1 µM [19] of the same compound?
**A.** 99%

**Q.** And the remaining activity at 1 µM [20]?
**A.** 84%

**Q.** What about the remaining activity at 1 µM [21] of the same compound?
**A.** 94%

**Q.** And the remaining activity at 1 µM [22]?
**A.** 81%

**Q.** And the remaining activity at 1 µM [23]?
**A.** 72%

**Q.** And the remaining activity at 1 µM [24]?
**A.** 91%

**Q.** What about the remaining activity at 1 µM [25] of the same compound?
**A.** 31%

**Q.** What about the remaining activity at 1 µM [26] of the same compound?
**A.** 69%

**Q.** And the remaining activity at 1 µM [27]?
**A.** 99%

**Q.** What about the remaining activity at 1 µM [28] of the same compound?
**A.** 80%

**Q.** What about the remaining activity at 1 µM [29] of the same compound?
**A.** 80%

**Q.** What about the remaining activity at 1 µM [30] of the same compound?
**A.** 83%

**Q.** What about the remaining activity at 1 µM [31] of the same compound?
**A.** 90%

**Q.** What about the remaining activity at 1 µM [32] of the same compound?
**A.** 90%

**Q.** And the remaining activity at 1 µM [33]?
**A.** 100%

**Q.** What about the remaining activity at 1 µM [34] of the same compound?
**A.** 97%

**Q.** What about the remaining activity at 1 µM [35] of the same compound?
**A.** 50%

**Q.** And the remaining activity at 1 µM [36]?
**A.** 34%

**Q.** And the remaining activity at 1 µM [37]?
**A.** 84%

**Q.** And the remaining activity at 1 µM [38]?
**A.** 98%

**Q.** And the remaining activity at 1 µM [39]?
**A.** 96%

Source: article PMC9954146, “Anti-Leukaemic Activity of Rilpivirine Is Mediated by Aurora A Kinase Inhibition” (Cancers, 2023)
